Legend:
[1] = molecular target: Sodium channel protein type 5 subunit alpha (Homo sapiens, UniProt Q14524); type: functional, cell-based
[2] = molecular target: Histamine H3 receptor (Homo sapiens, UniProt Q9Y5N1)
[3] = molecular target: T1, Gastric inhibitory polypeptide receptor (Homo sapiens, UniProt P48546)
T1 sequence (P48546 whole entry): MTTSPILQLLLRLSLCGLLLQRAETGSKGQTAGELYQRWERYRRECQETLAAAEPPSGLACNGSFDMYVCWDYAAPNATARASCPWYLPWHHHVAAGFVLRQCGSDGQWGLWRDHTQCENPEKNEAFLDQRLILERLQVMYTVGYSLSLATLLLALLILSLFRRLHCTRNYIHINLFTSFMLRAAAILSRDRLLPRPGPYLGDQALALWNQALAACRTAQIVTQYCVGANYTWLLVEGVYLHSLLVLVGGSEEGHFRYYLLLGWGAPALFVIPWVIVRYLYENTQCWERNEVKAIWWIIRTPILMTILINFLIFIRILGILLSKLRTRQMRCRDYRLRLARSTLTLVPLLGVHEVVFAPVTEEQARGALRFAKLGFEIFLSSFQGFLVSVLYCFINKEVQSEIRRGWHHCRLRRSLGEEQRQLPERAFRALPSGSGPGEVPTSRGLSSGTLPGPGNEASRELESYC

[4] = molecular target: 5-hydroxytryptamine receptor 6 (Homo sapiens, UniProt P50406)
Chain of 5-hydroxytryptamine receptor 6 (P50406 whole entry): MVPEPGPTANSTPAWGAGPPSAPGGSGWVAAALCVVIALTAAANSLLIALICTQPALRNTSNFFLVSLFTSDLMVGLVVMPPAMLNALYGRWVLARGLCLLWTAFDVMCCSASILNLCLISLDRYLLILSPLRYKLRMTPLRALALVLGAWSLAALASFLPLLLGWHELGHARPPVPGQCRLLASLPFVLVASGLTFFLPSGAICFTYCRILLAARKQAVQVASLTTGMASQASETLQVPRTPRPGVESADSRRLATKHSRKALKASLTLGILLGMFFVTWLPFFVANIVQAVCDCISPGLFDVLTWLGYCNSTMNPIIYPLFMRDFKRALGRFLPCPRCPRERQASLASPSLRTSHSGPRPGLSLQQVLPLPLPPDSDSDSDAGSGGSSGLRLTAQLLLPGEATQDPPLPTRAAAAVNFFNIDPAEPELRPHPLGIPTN

[5] = molecular target: 5-hydroxytryptamine receptor 7 (Homo sapiens, UniProt P34969)
Chain of 5-hydroxytryptamine receptor 7 (P34969 whole entry): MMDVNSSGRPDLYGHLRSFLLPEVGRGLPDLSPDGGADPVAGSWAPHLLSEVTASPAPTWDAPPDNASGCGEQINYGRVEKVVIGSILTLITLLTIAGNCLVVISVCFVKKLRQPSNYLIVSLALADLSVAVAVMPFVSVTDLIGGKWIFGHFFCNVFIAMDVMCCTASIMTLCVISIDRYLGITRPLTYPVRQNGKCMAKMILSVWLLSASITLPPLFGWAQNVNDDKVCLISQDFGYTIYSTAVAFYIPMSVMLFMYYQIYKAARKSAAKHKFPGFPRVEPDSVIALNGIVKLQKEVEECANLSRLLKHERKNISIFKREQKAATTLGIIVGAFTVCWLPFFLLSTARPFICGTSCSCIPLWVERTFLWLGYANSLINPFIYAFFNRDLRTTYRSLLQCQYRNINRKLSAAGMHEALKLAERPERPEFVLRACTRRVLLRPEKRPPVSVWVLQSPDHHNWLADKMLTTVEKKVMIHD

[6] = molecular target: Cannabinoid receptor 1 (Homo sapiens, UniProt P21554); type: functional
Chain of Cannabinoid receptor 1 (P21554 whole entry): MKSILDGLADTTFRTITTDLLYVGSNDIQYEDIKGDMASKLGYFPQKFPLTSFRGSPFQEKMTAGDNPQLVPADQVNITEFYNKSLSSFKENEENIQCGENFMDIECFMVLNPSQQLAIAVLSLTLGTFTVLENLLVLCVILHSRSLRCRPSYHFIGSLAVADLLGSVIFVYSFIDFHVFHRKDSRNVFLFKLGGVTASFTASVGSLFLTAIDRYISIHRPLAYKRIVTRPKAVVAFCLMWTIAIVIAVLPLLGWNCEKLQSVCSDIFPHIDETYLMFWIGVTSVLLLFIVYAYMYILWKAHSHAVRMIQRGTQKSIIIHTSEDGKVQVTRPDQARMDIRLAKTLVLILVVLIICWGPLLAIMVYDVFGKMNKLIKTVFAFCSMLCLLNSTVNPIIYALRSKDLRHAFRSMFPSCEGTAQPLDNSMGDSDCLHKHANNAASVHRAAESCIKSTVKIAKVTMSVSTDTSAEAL

[7] = molecular target: T2, Corticotropin-releasing factor receptor 1 (Homo sapiens, UniProt P34998)
T2 sequence (P34998 whole entry): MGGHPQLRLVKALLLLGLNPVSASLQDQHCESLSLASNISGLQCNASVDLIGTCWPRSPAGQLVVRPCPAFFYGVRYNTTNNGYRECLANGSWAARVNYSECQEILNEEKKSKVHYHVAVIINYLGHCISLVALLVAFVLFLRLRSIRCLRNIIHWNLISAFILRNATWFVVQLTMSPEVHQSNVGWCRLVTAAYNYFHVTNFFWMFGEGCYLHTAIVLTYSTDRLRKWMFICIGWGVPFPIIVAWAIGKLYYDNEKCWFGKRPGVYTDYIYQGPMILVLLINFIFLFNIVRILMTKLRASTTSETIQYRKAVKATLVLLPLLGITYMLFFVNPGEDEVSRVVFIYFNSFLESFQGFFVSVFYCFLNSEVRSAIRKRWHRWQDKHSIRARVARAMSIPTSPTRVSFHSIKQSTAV

[8] = molecular target: T3, Thromboxane A2 receptor (Homo sapiens, UniProt P21731); type: functional, cell-based
T3 sequence (P21731 whole entry): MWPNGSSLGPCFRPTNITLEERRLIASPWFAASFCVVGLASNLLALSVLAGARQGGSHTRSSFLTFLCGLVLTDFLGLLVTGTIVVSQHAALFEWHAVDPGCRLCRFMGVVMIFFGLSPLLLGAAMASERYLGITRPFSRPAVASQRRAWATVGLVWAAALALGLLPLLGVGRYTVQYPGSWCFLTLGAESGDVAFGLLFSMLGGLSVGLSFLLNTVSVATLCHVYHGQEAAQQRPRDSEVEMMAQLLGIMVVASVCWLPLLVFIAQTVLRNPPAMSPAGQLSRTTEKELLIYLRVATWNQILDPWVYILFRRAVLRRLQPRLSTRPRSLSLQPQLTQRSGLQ

[9] = molecular target: T4, Alpha-1A adrenergic receptor (Homo sapiens, UniProt P35348)
T4 sequence (P35348 whole entry): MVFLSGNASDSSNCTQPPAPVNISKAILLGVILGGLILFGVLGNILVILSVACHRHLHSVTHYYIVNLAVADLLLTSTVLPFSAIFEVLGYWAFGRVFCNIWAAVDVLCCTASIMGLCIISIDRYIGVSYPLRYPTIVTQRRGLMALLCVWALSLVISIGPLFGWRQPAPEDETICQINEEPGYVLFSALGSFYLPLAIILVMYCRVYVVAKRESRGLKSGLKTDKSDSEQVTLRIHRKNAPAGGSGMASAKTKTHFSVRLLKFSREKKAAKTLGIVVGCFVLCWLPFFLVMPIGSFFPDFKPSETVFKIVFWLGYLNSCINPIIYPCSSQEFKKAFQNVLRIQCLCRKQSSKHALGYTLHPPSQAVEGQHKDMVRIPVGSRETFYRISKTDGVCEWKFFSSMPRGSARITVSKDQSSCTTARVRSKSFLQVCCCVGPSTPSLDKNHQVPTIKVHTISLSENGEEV

[10] = molecular target: Hydroxycarboxylic acid receptor 2 (Homo sapiens, UniProt Q8TDS4)
Chain of Hydroxycarboxylic acid receptor 2 (Q8TDS4 whole entry): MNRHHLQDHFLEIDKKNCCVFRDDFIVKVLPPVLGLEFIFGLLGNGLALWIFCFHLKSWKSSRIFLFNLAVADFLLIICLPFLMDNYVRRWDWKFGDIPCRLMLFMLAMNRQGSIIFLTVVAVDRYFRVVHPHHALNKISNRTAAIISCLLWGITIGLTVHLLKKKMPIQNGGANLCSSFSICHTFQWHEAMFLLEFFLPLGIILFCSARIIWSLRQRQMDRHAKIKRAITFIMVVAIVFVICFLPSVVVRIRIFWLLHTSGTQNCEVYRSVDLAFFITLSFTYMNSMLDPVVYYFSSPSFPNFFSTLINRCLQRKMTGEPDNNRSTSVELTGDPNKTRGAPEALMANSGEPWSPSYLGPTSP

[11] = molecular target: T5, Muscarinic acetylcholine receptor M4 (Homo sapiens, UniProt P08173)
T5 sequence (P08173 whole entry): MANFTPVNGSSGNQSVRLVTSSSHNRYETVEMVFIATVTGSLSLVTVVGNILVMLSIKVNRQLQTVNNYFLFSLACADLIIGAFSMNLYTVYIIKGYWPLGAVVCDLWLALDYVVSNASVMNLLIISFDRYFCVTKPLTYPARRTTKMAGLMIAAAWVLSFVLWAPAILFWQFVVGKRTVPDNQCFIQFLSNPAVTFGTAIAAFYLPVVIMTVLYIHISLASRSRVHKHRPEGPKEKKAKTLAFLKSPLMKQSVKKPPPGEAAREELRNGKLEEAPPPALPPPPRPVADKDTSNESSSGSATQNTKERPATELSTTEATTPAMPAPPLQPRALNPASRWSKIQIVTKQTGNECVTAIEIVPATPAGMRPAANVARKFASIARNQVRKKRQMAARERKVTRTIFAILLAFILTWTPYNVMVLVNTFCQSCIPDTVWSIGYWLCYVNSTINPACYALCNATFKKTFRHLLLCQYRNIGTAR
Further: assay procedure not described here.

Chain of Sodium channel protein type 5 subunit alpha (Q14524 whole entry): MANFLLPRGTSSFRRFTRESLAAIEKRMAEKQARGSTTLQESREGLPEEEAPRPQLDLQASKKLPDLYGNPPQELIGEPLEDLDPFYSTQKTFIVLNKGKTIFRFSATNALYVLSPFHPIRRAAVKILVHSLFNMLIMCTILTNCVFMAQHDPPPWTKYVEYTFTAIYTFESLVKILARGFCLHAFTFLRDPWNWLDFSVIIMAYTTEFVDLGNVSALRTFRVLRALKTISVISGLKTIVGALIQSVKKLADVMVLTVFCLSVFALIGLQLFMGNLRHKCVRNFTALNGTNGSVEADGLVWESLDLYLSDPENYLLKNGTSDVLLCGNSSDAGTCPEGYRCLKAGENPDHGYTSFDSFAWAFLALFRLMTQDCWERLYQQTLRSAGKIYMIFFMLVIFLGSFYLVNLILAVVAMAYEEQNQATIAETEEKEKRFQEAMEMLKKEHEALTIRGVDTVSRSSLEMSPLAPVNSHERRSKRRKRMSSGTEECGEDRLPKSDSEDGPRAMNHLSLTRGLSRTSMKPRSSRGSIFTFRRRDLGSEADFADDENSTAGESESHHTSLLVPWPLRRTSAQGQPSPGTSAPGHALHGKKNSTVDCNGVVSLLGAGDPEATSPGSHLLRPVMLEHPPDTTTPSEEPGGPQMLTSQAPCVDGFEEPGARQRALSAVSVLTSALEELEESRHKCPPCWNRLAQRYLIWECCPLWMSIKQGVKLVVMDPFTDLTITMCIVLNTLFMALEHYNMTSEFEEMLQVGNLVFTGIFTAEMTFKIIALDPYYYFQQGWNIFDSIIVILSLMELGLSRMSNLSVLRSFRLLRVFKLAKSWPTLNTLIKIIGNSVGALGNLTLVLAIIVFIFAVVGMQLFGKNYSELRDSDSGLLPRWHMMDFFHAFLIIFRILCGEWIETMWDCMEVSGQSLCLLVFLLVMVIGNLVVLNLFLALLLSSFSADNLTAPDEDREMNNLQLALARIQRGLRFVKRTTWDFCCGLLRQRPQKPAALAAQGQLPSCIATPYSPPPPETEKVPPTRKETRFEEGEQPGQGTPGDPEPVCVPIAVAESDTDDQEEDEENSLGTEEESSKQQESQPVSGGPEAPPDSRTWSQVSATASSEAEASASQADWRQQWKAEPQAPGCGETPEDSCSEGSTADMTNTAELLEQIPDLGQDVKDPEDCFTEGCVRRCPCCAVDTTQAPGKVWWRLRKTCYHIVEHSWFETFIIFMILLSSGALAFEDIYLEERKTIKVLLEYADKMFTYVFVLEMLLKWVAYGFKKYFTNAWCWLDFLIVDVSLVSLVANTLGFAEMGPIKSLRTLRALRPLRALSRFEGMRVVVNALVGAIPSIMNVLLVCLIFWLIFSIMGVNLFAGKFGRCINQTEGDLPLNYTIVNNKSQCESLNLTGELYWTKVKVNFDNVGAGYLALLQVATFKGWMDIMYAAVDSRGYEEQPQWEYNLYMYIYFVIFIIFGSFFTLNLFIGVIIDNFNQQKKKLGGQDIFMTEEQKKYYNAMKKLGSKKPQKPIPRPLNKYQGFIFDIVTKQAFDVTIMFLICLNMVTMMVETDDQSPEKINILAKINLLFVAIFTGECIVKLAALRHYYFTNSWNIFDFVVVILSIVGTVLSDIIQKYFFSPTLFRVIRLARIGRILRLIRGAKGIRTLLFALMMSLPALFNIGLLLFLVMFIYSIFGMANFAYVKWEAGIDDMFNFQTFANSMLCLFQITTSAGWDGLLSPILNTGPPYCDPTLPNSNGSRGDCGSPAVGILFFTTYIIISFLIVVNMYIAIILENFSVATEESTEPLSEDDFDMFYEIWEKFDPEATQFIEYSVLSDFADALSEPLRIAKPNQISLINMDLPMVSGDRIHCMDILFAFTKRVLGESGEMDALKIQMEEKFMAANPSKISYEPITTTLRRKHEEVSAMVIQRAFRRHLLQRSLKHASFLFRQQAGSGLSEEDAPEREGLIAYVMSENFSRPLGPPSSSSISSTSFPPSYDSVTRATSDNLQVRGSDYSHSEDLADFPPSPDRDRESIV
Chain of Histamine H3 receptor (Q9Y5N1 whole entry): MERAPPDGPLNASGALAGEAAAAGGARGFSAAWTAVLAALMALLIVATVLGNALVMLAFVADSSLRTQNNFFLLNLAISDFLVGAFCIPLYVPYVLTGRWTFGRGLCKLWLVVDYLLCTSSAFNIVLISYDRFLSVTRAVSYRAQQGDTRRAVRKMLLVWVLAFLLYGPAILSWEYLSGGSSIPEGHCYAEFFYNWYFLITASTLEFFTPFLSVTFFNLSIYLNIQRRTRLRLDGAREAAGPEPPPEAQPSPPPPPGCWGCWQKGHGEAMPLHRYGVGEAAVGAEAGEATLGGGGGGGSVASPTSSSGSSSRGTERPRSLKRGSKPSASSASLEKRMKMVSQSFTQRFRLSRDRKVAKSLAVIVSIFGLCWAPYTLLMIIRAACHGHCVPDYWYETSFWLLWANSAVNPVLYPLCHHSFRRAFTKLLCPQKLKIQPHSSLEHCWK

Row | Compound | AC50 [1] | AC50 [3] | AC50 [4] | AC50 [5] | AC50 [6] | AC50 [7] | AC50 [9] | also measured
1 | N#Cc1ccccc1-c1cc(-c2ccccn2)cn(-c2ccccc2)c1=O | > 30 µM |  |  |  |  |  |  | 
2 | NCCCC(O)(P(=O)(O)O)P(=O)(O)O [ALENDRONIC ACID] | > 30 µM | > 30 µM | > 10 µM | > 10 µM | > 10 µM | > 30 µM | > 10 µM | AC50 [2]: > 30 µM; AC50 [8]: > 30 µM
3 | CCCC(C)(COC(N)=O)COC(=O)NC(C)C (centres undefined) [CARISOPRODOL] |  | > 30 µM |  |  |  | > 30 µM | > 10 µM | AC50 [10]: > 10 µM
4 | COCCOC(=O)C1=C(C)NC(C)=C(C(=O)OC/C=C/c2ccccc2)C1c1cccc([N+](=O)[O-])c1 (centres undefined) [CILNIDIPINE] | > 50 µM |  |  |  |  |  |  | 
5 | N[C@H](Cc1cc(I)c(Oc2cc(I)c(O)c(I)c2)c(I)c1)C(=O)O [DEXTROTHYROXINE] |  | > 30 µM |  |  |  | > 30 µM |  | 
6 | COC(=O)N[C@@H](C)CNc1nccc(-c2cn(C(C)C)nc2-c2cc(Cl)cc(NS(C)(=O)=O)c2F)n1 [ENCORAFENIB] | > 30 µM |  |  |  |  |  |  | 
7 | CCCN(CC)C(CC)C(=O)Nc1c(C)cccc1C (centres undefined) [ETIDOCAINE] | 28 µM |  |  |  |  |  |  | 
8 | CC(=O)OCC(CCn1cnc2cnc(N)nc21)COC(C)=O [FAMCICLOVIR] |  | > 30 µM |  |  |  | > 30 µM | > 10 µM | AC50 [10]: > 10 µM
9 | O=C(O)c1ccccc1Nc1cccc(C(F)(F)F)c1 [FLUFENAMIC ACID] |  | > 30 µM |  |  |  | > 30 µM |  | 
10 | COC1=C(OC)C(=O)C(CCCCCCCCCCO)=C(C)C1=O [IDEBENONE] |  | > 30 µM | > 10 µM | > 10 µM | > 10 µM | > 30 µM | > 10 µM | AC50 [11]: > 10 µM
11 | CC#CCn1c(N2CCC[C@@H](N)C2)nc2c1c(=O)n(Cc1nc(C)c3ccccc3n1)c(=O)n2C [LINAGLIPTIN] | > 150 µM |  |  |  |  |  |  | 
12 | Cc1ccc(NC(=O)C2(c3ccc4c(c3)OC(F)(F)O4)CC2)nc1-c1cccc(C(=O)O)c1 [LUMACAFTOR] | > 50 µM |  |  |  |  |  |  | 
13 | O=C1CN=C(c2ccccc2)c2cc(Cl)ccc2N1 [NORDAZEPAM] |  | > 30 µM | > 10 µM | > 10 µM | 0.0006 µM | > 30 µM | > 10 µM | AC50 [11]: > 10 µM
14 | CC(CCc1ccccc1)NC(C)C(O)c1ccc(O)cc1 (centres undefined) [NYLIDRIN] |  | > 30 µM | > 10 µM | > 10 µM | > 10 µM | > 30 µM |  | AC50 [11]: > 10 µM
15 | O=C1Nc2ccc(Cl)cc2C(c2ccccc2)=NC1O (centres undefined) [OXAZEPAM] |  | > 30 µM | > 10 µM | > 10 µM | > 10 µM | > 30 µM | > 10 µM | AC50 [11]: > 10 µM
16 | Cc1ccc(=O)n(-c2ccccc2)c1 [PIRFENIDONE] | > 50 µM |  |  |  |  |  |  | 
17 | C[n+]1ccccc1/C=N/O [PRALIDOXIME] |  |  |  |  |  |  |  | AC50 [2]: > 30 µM; AC50 [8]: > 30 µM
18 | CC(C)CC(N(C)C)C1(c2ccc(Cl)cc2)CCC1 (centres undefined) [SIBUTRAMINE] |  | > 30 µM |  |  |  | > 30 µM | > 10 µM | AC50 [10]: > 10 µM
19 | [H]/N=C(/N)N[C@H]1[C@H](O)[C@@H](O)[C@H](O[C@@H]2O[C@@H](C)[C@](O)(C=O)[C@H]2O[C@@H]2O[C@@H](CO)[C@H](O)[C@@H](O)[C@@H]2NC)[C@@H](N/C(N)=N\[H])[C@@H]1O [STREPTOMYCIN] |  | > 30 µM | > 10 µM | > 10 µM | > 10 µM | > 30 µM | > 10 µM | 
20 | N#C[C@@H]1CCCN1C(=O)CNC12CC3CC(CC(O)(C3)C1)C2 [VILDAGLIPTIN] |  |  | > 10 µM | > 10 µM | > 10 µM |  | > 10 µM | AC50 [11]: > 10 µM
21 | COLISTIN |  |  |  |  |  |  |  | AC50 [2]: > 30 µM; AC50 [8]: > 30 µM

Source: ChEMBL document CHEMBL5291721, “A preclinical secondary pharmacology resource illuminates target-adverse drug reaction associations of marketed drugs” (Nat Commun, 2023)
